Laboratory results as given in patent publication EP0216028A2, “Use of anthranilic-acid derivatives as anthelmintic medicaments” (HOECHST AKTIENGESELLSCHAFT, priority 1985, dated 1987).
Like-named read-outs stand apart in the source and are kept apart here.

Tests used:
[1] = system: Leberegel (Fasciola hepatica); test: Chemotherapeutic test in sheep infected with liver fluke (egg count reduction / worm burden); assay type: in vivo; conditions: Wirtstier: Schaf, p.o.; for minimal effective dose: Fasciola hepatica, po, read-out: Dosis (>90% Reduktion der Wurmbürde); for Chemotherapeut. Index: quotient of Dosis tolerata maxima and Dosis curativa minima
Excerpt: (§1) Zur Feststellung der anthelminthischen Wirkung der Verbindungen der Formel I wurden chemotherapeutische Untersuchungen an ca. 25-30 kg schweren Schaflämmern ausgeführt, die entweder mit Metazerkarien von Fasciola hepatica oder mit Larven von Magen-Darm-Strongyliden, vornehmlich Haemonchus contortus und Trichostongylus colubriformis, oral infiziert worden waren. Nach Ablauf der Präpatenzperiode (Zeit zwischen Infektion und Geschlechtsreife der Parasiten mit beginnender Ausscheidung von Eiern oder Larven) wurde der Parasitenbefall durch Kotuntersuchungen gesichert. […] Unmittelbar danach wurde die Behandlung der Schafe (im allgemeinen 3 - 4 Tiere pro Wirkstoff, mindestens aber 2) vorgenommen. Den Tieren wurde oral oder parenteral eine Suspension von unterschiedlicher Wirkstoffmenge in jeweils 10 ml einer 1%igen Carboxymethylcellulose-Suspension appliziert. Jeweils am 7., 14. und 28. Tag nach der Behandlung wurde wiederum nach den vorstehend angegebenen Verfahren die Eizahl pro Gramm Kot ermittelt und ihre prozentuale Abnahme im Vergleich zum Ausgangswert vor der Behandlung errechnet. Mit einigen Verbindungen wurden außerdem beim Fasciola-Befall noch eine zusätzliche Prüftechnik angewandt: Nach Abschluß der Präpatenzperiode wurde bei Fasciola-positiven Schafen ein künstlicher Gallengang geschaffen, der am Ausgang der Gallenblase ein Sieb enthielt, so daß die nach der Behandlung abgetöteten Leberegel in der Gallenblase aufgefangen werden konnten. Vier bis sieben Tage nach der Behandlung wurden die so operierten und dann behandelten Schafe getötet, die abgetöteten Leberegel in der Gallenblase sowie noch eventuell in der Leber vorhandene lebende Leberegel gezählt und von der gesamten Wurmbürde der Prozentsatz der abgetöteten Parasiten berechnet.
(§2) Der chemotherapeutische Index gibt den Quotienten aus Do- sis tolerata maxima und Dosis curativa minima an.

[2] = system: Magen-Darm-Würmer(Ostertagia, Haemonchur, Trichostrongylus, Cooperia, jeweils verschiedene Spezies); test: Chemotherapeutic test in sheep infected with gastrointestinal worms (egg count reduction / worm burden); assay type: in vivo; conditions: Tabelle 2, Wirtstier: Schaf; for Chemotherapeut. Index: quotient of Dosis tolerata maxima and Dosis curativa minima; for minimal effective dose: Trichostrongylus, read-out: Dosis (>90% Reduktion der Wurmbürde)
Excerpt: as §1, §2

[3] = Tabelle 3 (comparison of isomers)
[4] = Tabelle 1, minimum curative dose

SMILES | minimal effective dose [1, 3] [mg/kg] | Chemotherapeut. Index [1, 3] | minimal effective dose [1, 4] [mg/kg] | Chemotherapeut. Index ([1]; Tabelle 1) | also measured
O=C(Nc1ccc(Cl)cc1)c1ccc(Cl)cc1NS(=O)(=O)c1ccc(Cl)cc1 [V1, 4-Chlor-2-[(4-chlor-phenylsulfonyl)-amino]-benzoesäure-(4-chloranilid), reference compound] | 30 | 2 |  |  | 
O=C(Nc1ccc(Cl)cc1)c1ccc(NS(=O)(=O)c2ccc(Cl)cc2)cc1Cl [V2, reference compound] | 20 | 3 |  |  | 
O=C(Nc1ccc(Cl)cc1)c1ccc(NS(=O)(=O)c2ccc(Cl)cc2)c(Cl)c1 [V3, reference compound] | 30 | 2 |  |  | 
O=C(Nc1ccc(Cl)cc1)c1ccc(Cl)c(NS(=O)(=O)c2ccc(Cl)cc2)c1 [V4, 4-Chlor-3-[(4-Chlorphenylsulfonyl)-amino]-benzoesäure-(4-chlor-anilid), reference compound] | 15 | 4 |  |  | 
O=C(Nc1ccc(Cl)cc1)c1cc(NS(=O)(=O)c2ccc(Cl)cc2)ccc1Cl [V5, reference compound] | 30 | 2 |  |  | 
O=C(Nc1ccc(Cl)c(Cl)c1)c1ccc(Cl)cc1NS(=O)(=O)c1ccc(Cl)cc1 [V6, 4-Chlor-2-[(4-chlor-phenylsulfonyl)-amino]-benzoesäure-(3,4-dichlor-anilid), reference compound] | 30 | 2 |  |  | 
O=C(Nc1ccc(F)cc1)c1cc(NS(=O)(=O)c2ccc(Cl)cc2)ccc1Cl [V7, 2-Chlor-5-[(4-chlor-phenylsulfonyl)-amino]-benzoesäure-(4-fluor-anilid), reference compound] | 30 | 2 |  |  | 
O=C(Nc1ccc(Cl)cc1)c1ccc(NS(=O)(=O)c2ccc(Cl)cc2)cc1Br [V8, reference compound] | 30 | 2 |  |  | 
O=C(Nc1ccc(Cl)cc1)c1ccc(Br)cc1NS(=O)(=O)c1ccc(Cl)cc1 [V9, 4-Brom-2-[(4-chlor-phenylsulfonyl)-amino]-benzoesäure-(4-chlor-anilid), reference compound] | 20 | 3 |  |  | 
O=C(Nc1ccc(Cl)c(Cl)c1)c1ccc(NS(=O)(=O)c2ccc(Cl)cc2)cc1Cl [V10, reference compound] | 10 | 5 |  |  | 
O=C(Nc1ccc(Cl)cc1)c1cc(Cl)ccc1NS(=O)(=O)c1ccc(Cl)cc1 [Verbindung 1] | 1.5 | über 25 | 1.5 | über 25 | 
O=C(Nc1ccc(Cl)cc1Cl)c1cc(Cl)ccc1NS(=O)(=O)c1ccc(Cl)cc1 [Verbindung 2, 5-Chlor-2-[(4-chlor-phenylsulfonyl)-amino]-benzoesäure-(2,4-dichlor-anilid)] |  |  | 7.5 | 8 | 
O=C(Nc1ccc(Cl)c(Cl)c1)c1cc(Cl)ccc1NS(=O)(=O)c1ccc(Cl)cc1 [Verbindung 3, 5-Chlor-2-t(4-chlor-phenylsulfonyl)-aminoJ-benzoesäure-(3,4-dichloranilid)] | 5 | 10 | 5 | 10 | 
O=C(Nc1ccc(F)cc1)c1cc(Cl)ccc1NS(=O)(=O)c1ccc(Cl)cc1 [Verbindung 4] |  | 20 | 2.5 | 20 | Dosis (>90% Reduktion der Wurmbürde) [1, 3]: 2,5 mg/kg Körpergewicht
O=C(Nc1ccc(Br)cc1)c1cc(Cl)ccc1NS(=O)(=O)c1ccc(Cl)cc1 [Verbindung 5, 5-Chlor[(4-chlor-phenylsulfonyl)-amino]-benzoesäure-(4-brom-anilid)] |  |  | 5 | 10 | 
CN(C(=O)c1cc(Cl)ccc1NS(=O)(=O)c1ccc(Cl)cc1)c1ccc(Cl)cc1 [Verbindung 6] |  |  |  |  | Chemotherapeut. Index ([2]; p.o.): 5; minimal effective dose ([2]; po, p.o.): 10 mg/kg
O=C(Nc1ccc(Cl)cc1)c1cc(Br)ccc1NS(=O)(=O)c1ccc(Cl)cc1 [Verbindung 9, 5-Brom-2-[(4-chlor-phenylsulfonyl)-amino]-benzoesäure-(4-chlor-anilid)] | 2.5 | 20 | 5 | 10 | 

SMILES | minimal effective dose [1, 3] [mg/kg] | Chemotherapeut. Index [1, 3] | minimal effective dose [1, 4] [mg/kg] | Chemotherapeut. Index ([1]; Tabelle 1) | also measured
O=C(Nc1ccc(Cl)cc1)c1cc(Cl)c(Cl)cc1NS(=O)(=O)c1ccc(Cl)cc1 [Verbindung 12, 4,5-Dichlor-2-[(4-chlor-phenylsulfonyl)-amino]-benzoesäure-(4-chlor-anilid)] |  |  | 5 | 10 | 
O=C(Nc1ccc(F)cc1)c1cc(Cl)cc(Cl)c1NS(=O)(=O)c1ccc(Cl)cc1 [Verbindung 14, 3,5-Dichlor-2-[(4-chlor-phenylsulfonyl)-amino]-benzoesäure-(4-fluor-anilid)] |  |  | 7.5 | 5 | 
CCCCCCCCCCCCNC(=O)c1cc(Cl)cc(Cl)c1NS(=O)(=O)c1ccc(Cl)cc1 [Verbindung 16] |  |  |  |  | Chemotherapeut. Index ([2]; p.o.): 10; minimal effective dose ([2]; po, p.o.): 5 mg/kg
CCCCCCCCCCCCNC(=O)c1cc(Cl)ccc1NS(=O)(=O)c1ccc(Cl)cc1 [Verbindung 17, 5-Chlor-2-[(4-chlor-phenylsulfonyl)-amino]-benzoesäure-dodecylamid] |  |  | 2.5 | 20 | 
CCCCCCCCCCCCN(C)C(=O)c1cc(Cl)ccc1NS(=O)(=O)c1ccc(Cl)cc1 [Verbindung 19, 5-Chlor-2-[(4-chlor-phenylsulfonyl)-amino]-benzoesäure-(N-methyl-dodecylamid)] |  |  | 7.5 | 5 | 
O=C(Nc1ccc(Br)cc1)c1cc(Cl)ccc1NS(=O)(=O)c1ccc(Br)cc1 [Verbindung 21] |  |  |  |  | Chemotherapeut. Index ([2]; s.c.): über 6; minimal effective dose ([2]; sc, s.c.): 5 mg/kg
O=C(Nc1ccc(Cl)cc1)c1cc(Cl)ccc1NS(=O)(=O)c1ccc(F)cc1 [Verbindung 22, 5-Chlor-2-[(4-fluor-phenylsulfonyl)-amino]-benzoesäure-(4-chloranilid)] |  |  |  |  | Chemotherapeut. Index ([2]; p.o.): 5; minimal effective dose ([2]; po, p.o.): 10 mg/kg
O=C(Nc1ccc(Cl)cc1)c1cc(Cl)ccc1NS(=O)(=O)c1ccc(Cl)cc1Cl [Verbindung 25, 5-Chlor-2-[(2,4-dichlor-phenylsulfonyl)-amino]-benzoesäure-(4-chloranilid)] |  |  | 7.5 | 6 | 
O=C(Nc1ccc(Cl)cc1)c1cc(Cl)ccc1NS(=O)(=O)c1ccc(Cl)c(Cl)c1 [Verbindung 26, 5-Chlor-2-[(3,4-dichlor-phenylsulfonyl)-amino]-benzoesäure-(4-chlor-anilid)] |  | über 25 | 1 | über 25 | Dosis (>90% Reduktion der Wurmbürde) [1, 3]: 1 mg/kg Körpergewicht
CCCCCCCCNC(=O)c1cc(Cl)ccc1NS(=O)(=O)c1ccc(Cl)c(Cl)c1 [Verbindung 27, 5-Chlor-2-[(3,4-dichlor-phenylsulfonyl)-amino]-benzoesäure-octylamid] |  |  | 7.5 | 8 | 
CCN(C(=O)c1cc(Cl)ccc1NS(=O)(=O)c1ccc(Cl)c(Cl)c1)c1ccc(Cl)cc1 [Verbindung 29] |  |  | 1.5 | über 25 | 
CN(c1ccc(Cl)cc1C(=O)Nc1ccc(Cl)cc1)S(=O)(=O)c1ccc(Cl)c(Cl)c1 [Verbindung 30, 5-Chlor-2-[(3,4-dichlor-phenylsulfonyl)-methylamino]-benzoesäure-(4-chlor-anilid)] |  |  | 5 | 10 | 
CCCCCCCCCCCCCCCCCCNC(=O)c1cc(Cl)ccc1NS(=O)(=O)c1ccc(Cl)c(Cl)c1 [Verbindung 32, 5-Chlor-2-[(3,4-dichlor-phenyl-sulfonyl)-amino]-benzoesäure-octa-decylamid] |  |  | 5 | 10 | 
CCCCCCCCCCCCN(C)C(=O)c1cc(Cl)ccc1NS(=O)(=O)c1ccc(Cl)c(Cl)c1 [Verbindung 33, 5-Chlor-2-[(3,4-dichlor-phenylsulfonyl)-amino]-benzoesäure-(N-methyl-dodecylamid)] |  |  |  |  | Chemotherapeut. Index ([2]; s.c.): über 6; minimal effective dose ([2]; sc, s.c.): 5 mg/kg
O=C(Nc1ccc(C(F)(F)F)cc1)c1cc(Cl)ccc1NS(=O)(=O)c1ccc(Cl)c(Cl)c1 [Verbindung 34, 5-Chlor-2-[(3,4-dichlor-phenylsulfonyl)-amino]-benzoesäure-(4-trifluormethyl-anilid)] |  |  | 2.5 | 20 | 
CCS(=O)(=O)c1ccc(NS(=O)(=O)c2ccc(Cl)c(Cl)c2)c(C(=O)Nc2ccc(Cl)cc2)c1 [Verbindung 40] |  |  | 5 | 10 | 
